According to patent US20240279278A1, “NMU RECEPTOR 2 AGONISTS” (Boehringer Ingelheim International GmbH, priority 2023, published 2024):
In brackets after ≈: the same amount, converted by molar mass. Residues, ends and D or L forms follow the SMILES beside them.

Columns and labels:
[1] = target: T1, human NMUR2 receptor (Homo sapiens, UniProt Q9GZQ4); test: Radioligand binding competition assay (RLB), human NMUR2 receptor binding (SPA, [125I]-Neuromedin U-25); set-up: host or cells: CHO-K1; settings: CHO-K1 hNMUR2 cell membranes, 4 hours at RT
[2] = target: T2, human NMUR1 receptor (Homo sapiens, UniProt Q9HB89); test: IP1 Gq HTRF assay, activation of human NMUR1 in buffer; assay type: cell-based; settings: CHO-K1 cells expressing human NMUR1, stimulation buffer with 0.1% BSA; read-out: EC50 (hNMUR1) buffer
T2 construct: expressed in transfected cells; host or cells: CHO-K1
T2 sequence (Q9HB89 1-426): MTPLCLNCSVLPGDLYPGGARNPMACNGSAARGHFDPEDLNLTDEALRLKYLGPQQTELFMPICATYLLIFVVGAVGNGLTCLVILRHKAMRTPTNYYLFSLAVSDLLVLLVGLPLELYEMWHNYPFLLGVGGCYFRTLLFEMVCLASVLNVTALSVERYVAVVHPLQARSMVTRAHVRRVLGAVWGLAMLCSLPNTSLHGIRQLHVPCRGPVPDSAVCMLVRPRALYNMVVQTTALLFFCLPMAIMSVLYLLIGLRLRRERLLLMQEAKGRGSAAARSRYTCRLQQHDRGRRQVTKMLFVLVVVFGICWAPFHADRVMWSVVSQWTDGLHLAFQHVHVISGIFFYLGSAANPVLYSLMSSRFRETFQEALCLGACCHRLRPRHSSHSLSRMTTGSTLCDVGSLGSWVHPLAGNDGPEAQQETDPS
Summary of the method: (§1)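 IP-One HTRF competition (665/620 nm ratio) read after 1 h agonist exposure at 37 °C in pH 7.4 HEPES/HBSS stimulation buffer containing 50 mM LiCl, 0.1% BSA, 1% DMSO. Cells: CHO-K1 stably expressing human NMUR2 or NMUR1. EC50 by 4-parameter nonlinear regression of 8-point curves.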

[3] = physchem; assay type: physicochemical; settings: pH 7
Summary of the method: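 Peptide TFA salts were shaken at a nominal 10 mg/mL in 0.1 M phosphate buffer, pH 6 to 8, for 2 h at room temperature and then filtered. Reversed-phase HPLC peak area was compared with a 1 mg/mL control in buffer or DMSO to give solubility. The pH of each sample was recorded.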

[4] = target: T1, human NMUR2 receptor; test: IP1 Gq HTRF assay, activation of human NMUR2 in buffer; assay type: cell-based; set-up: expressed in transfected cells; host or cells: CHO-K1; settings: CHO-K1 cells expressing human NMUR2, stimulation buffer with 0.1% BSA; read-out: EC50 (hNMUR2) buffer
Summary of the method: as §1

T1 sequence (Q9GZQ4 whole entry): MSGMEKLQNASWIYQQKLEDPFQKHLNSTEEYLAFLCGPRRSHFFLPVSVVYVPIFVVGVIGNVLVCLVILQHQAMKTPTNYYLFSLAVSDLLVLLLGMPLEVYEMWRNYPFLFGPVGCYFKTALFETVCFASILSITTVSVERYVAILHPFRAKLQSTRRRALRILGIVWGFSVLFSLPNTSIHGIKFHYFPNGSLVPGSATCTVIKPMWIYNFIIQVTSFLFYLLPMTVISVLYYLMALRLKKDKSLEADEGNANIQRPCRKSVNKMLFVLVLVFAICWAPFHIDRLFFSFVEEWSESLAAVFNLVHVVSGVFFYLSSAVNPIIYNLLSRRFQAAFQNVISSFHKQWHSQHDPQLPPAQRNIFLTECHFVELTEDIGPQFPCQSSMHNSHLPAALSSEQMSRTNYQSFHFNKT

Work on `CCCC[C@H](NC(=O)[C@H](CC(C)C)N(C)C(=O)[C@H](Cc1ccccc1)NC(=O)[C@H](Cc1ccc(O)cc1)NC(=O)CN1CCN(CCNC(=O)CN(C)C(=O)CN(C)C(=O)CN(C)C(=O)CN(C)C(=O)CN(C)C(=O)CN(C)C(=O)CN(C)C(=O)CN(C)C(=O)CN(C)C(=O)CN(C)C(=O)CN(C)C(=O)CN(C)C(=O)CN(C)C(=O)CN(C)C(=O)CN(C)C(=O)CC[C@H](NC(=O)CC[C@H](NC(=O)CC[C@H](NC(=O)CCCCCCCCCCCCCCCCCCC(=O)O)C(=O)O)C(=O)O)C(=O)O)CC1)C(=O)N[C@@H](CCN)C(=O)N(C)[C@@H](C)C(=O)N[C@@H](CCCNC(=N)N)C(=O)NCC(N)=O` [Compound 43, C20DA-gGlu3-Sar15-AEPipAc-Tyr-Phe-NMeLeu-Nle-Dbu-NMeAla-Arg-Gly-NH2] (HELM PEPTIDE1{[O=C(O)CCCCCCCCCCCCCCCCCCC(=O)[*:2]].[gGlu].[gGlu].[gGlu].[Sar].[Sar].[Sar].[Sar].[Sar].[Sar].[Sar].[Sar].[Sar].[Sar].[Sar].[Sar].[Sar].[Sar].[Sar].[O=C(CN1CCN(CCN[*:1])CC1)[*:2]].Y.F.[meL].[Nle].[Dab].[meA].R.G.[am]}$$$$V2.0) yielded a Ki [1] of 32.6 nM, an EC50 [2] greater than 1000 nM and a solubility at 2 h [3] of 5600 µg/mL (≈ 1920 µM). It also gave an EC50 [4] of 3.9 nM.
